Laboratory results published in patent US4567192A, “Acylaminophenol derivatives” (Sandoz Ltd., priority 1983, dated 1986).

What was measured:
[1] = Test I: arthritis pain test (method of A. W. Pircio et al.); type: in vivo; conditions: po
Excerpt: (I) The arthritis pain test (based on the method of A. W. Pircio et al., Eur. J. Pharmacol. 31, 207-215, 1975); and
(§1) As previously indicated, required daily dosages will depend inter al. on the particular compound of the invention employed. Results obtained for the compounds (L)-(4-acetamido-phenyl)-2-oxo-thiazolidine-4-carboxylate (compound A) in accordance with the present invention and the known analgesic paracetamol (compound B) in tests I and II above are shown in the following table.

inflamed rat hind-paw = experiment: Test II: Randall-Selitto Test on the inflamed rat hind-paw; type: in vivo; conditions: po
Excerpt: (II) The Randall-Selitto Test on the inflamed rat hind-paw (Arch. Int. Pharmacodyn. 61, 409-419, 1957).
as §1

[2] = system: GOT (Glutamate-Oxalacetate-Transaminase); experiment: Hepatoxicity: GOT (Glutamate-Oxalacetate-Transaminase) level in mouse serum; type: in vivo
Experimental: (§2) Thus on administration of 1'000 mg/kg p.o. of COMPOUND A in accordance with the invention to mice, no increase in GOT and GPT levels over levels in untreated controls (40 to 80 units/liter) is observed and no deaths are recorded. In contrast on administration of compound B (paracetamol) at a dosage of 560 mg/kg p.o., GOT levels are elevated to 3'800 units/liter and GPT levels are elevated to 3'000 units and on administration of compound B at a dosage of 1'000 mg/kg p.o., death of 2 out of 5 test animals is recorded.

[3] = system: GPT (Glutamate-Pyruvate-Transaminase); experiment: Hepatoxicity: GPT (Glutamate-Pyruvate-Transaminase) level in mouse serum; type: in vivo
Experimental: as §2

[4] = Deaths after oral administration to mice; type: in vivo, mouse; conditions: 1'000 mg/kg p.o.
[5] = high dosages, cited from earlier work
[6] = mice, 1'000 mg/kg p.o., untreated controls 40 to 80 units/liter

CC(=O)Nc1ccc(O)cc1 [COMPOUND B, N-(4-hydroxyphenyl)acetamide]
ED50 ([1]; 1 hr.): 75 mg/kg | ED50 ([1]; 3 hrs.): 142 mg/kg | ED50 ([1]; 5 hrs.): 261 mg/kg | ED50 (inflamed rat hind-paw): 203 mg/kg | GOT levels ([2]; mouse, in vivo, po, 560 mg/kg): 3'800 units/liter | GPT levels ([3]; mouse, in vivo, po, 560 mg/kg): 3'000 units | death of test animals [4]: 2 out of 5 | death ([5]; following liver damage): may lead to death | damage of the liver [5]: extensive damage of the liver

CC(=O)Nc1ccc(OC(=O)[C@@H]2CSC(=O)N2)cc1 [COMPOUND A, (L)-(4-acetamido-phenyl)-2-oxo-thiazolidine-4-carboxylate]
ED50 ([1]; 1 hr.): ~162 mg/kg | ED50 ([1]; 3 hrs.): 162 mg/kg | ED50 ([1]; 5 hrs.): 264 mg/kg | ED50 (inflamed rat hind-paw): 310 mg/kg | increase in GOT levels over levels in untreated controls [2, 6]: no increase | increase in GPT levels over levels in untreated controls [3, 6]: no increase | deaths [4]: no deaths
